Some test systems named below: MOLT-4 leukemia; RPMI-8226 leukemia; SR leukemia; UACC-62 melanoma; 786-0 renal; CAKI-1 renal; COLO 205 colon; HCC-2998 colon; HCT-116 colon; HL-60(TB) leukemia; HOP-62 NSCLC; HT29 colon; IGROV1 ovarian; NCI/ADR-RES ovarian; OVCAR-5 ovarian; SK-MEL-28 melanoma; SK-OV-3 ovarian; SNB-19 CNS; UO-31 renal; A498 renal; A549 NSCLC; ACHN renal; BT-549 breast; CCRF-CEM leukemia; DU-145 prostate; K-562 leukemia; M14 melanoma; MALME-3M melanoma; MCF7 breast; MDA-MB-231 breast; MDA-MB-435; NCI-H460 lung; OVCAR-3 ovarian; OVCAR-4 ovarian; RXF 393 renal; SF-268 CNS; SF-539 CNS; SK-MEL-5 melanoma; SNB-75 CNS; TK-10 renal; U251 CNS; UACC-257 melanoma.

Assay in all cases: NCI-60 cell line screen, 48 h

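These data come from cells grown in 96-well plates and exposed to compound for 48 hours at five concentrations. GI50: concentration for 50% inhibition of growth. TGI: total growth inhibition.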 The source made the active and inactive calls. No stated cut-off is given here; in the data, active means GI50 below about 0.43 µM; inactive means the rest.

Take `O=c1[nH]c(C2CCCCC2)nc2c(Cl)cccc12`: the result in the assay with MOLT-4 leukemia, in the assay with RPMI-8226 leukemia and in the assay on SR leukemia was inactive.

As for `CCOP(=O)(C/C=C\Cn1cnc(C(N)=O)c1N)OCC`, in the assay with UACC-62 melanoma, the GI50 was 25700 nM and the TGI came to 75800 nM.

For `NC(N)=N/N=C/c1c(-c2cc([N+](=O)[O-])c(Cl)cc2Cl)nc2sccn12`, the TGI with 786-0 renal worked out at 3110 nM; in the assay with CAKI-1 renal it was 33700 nM; with COLO 205 colon it was 2840 nM; with HCC-2998 colon, 2760 nM; with HCT-116 colon, 1020 nM; with HL-60(TB) leukemia it was 4310 nM. The TGI with HOP-62 NSCLC is 3440 nM; in the assay on HT29 colon it was 3180 nM; with IGROV1 ovarian it was 2030 nM; in the assay on NCI/ADR-RES ovarian, greater than 100000 nM; with OVCAR-5 ovarian, 3390 nM; with SK-MEL-28 melanoma, 2670 nM. The values for the TGI with SK-OV-3 ovarian, in the assay with SNB-19 CNS and in the assay on UO-31 renal were 3390 nM, 56300 nM and 2600 nM, respectively. Also, the GI50 was 1380 nM in the assay on COLO 205 colon; 1360 nM in the assay with HCC-2998 colon; 272 nM with HCT-116 colon; 1790 nM in the assay with HT29 colon; 712 nM with IGROV1 ovarian; 274 nM in the assay with SNB-19 CNS.

Turning to `COc1cccc2c1/c(=C/c1ccc(N(C)C)cc1)c1cc(-c3ccccc3)[n+](C)n12`, the TGI is 1100 nM with 786-0 renal; 1300 nM in the assay on A498 renal; 2500 nM with A549 NSCLC; 800 nM in the assay with ACHN renal; 774 nM in the assay with BT-549 breast; 1450 nM with CCRF-CEM leukemia. Also, the TGI in the assay with DU-145 prostate is 1750 nM; in the assay on HCC-2998 colon, 1080 nM; in the assay with HCT-116 colon it was 765 nM; with HOP-62 NSCLC it was 2080 nM; in the assay with HT29 colon, 129 nM; in the assay on K-562 leukemia it was 1390 nM. For the same compound, the TGI in the assay with M14 melanoma is 1080 nM; in the assay with MALME-3M melanoma it was 684 nM; in the assay on MCF7 breast, 1290 nM; in the assay with MDA-MB-231 breast, 2200 nM; in the assay on MDA-MB-435, 1650 nM; with MOLT-4 leukemia, 623 nM. For the same compound, the TGI with NCI-H460 lung is 949 nM; in the assay with NCI/ADR-RES ovarian, greater than 100000 nM; with OVCAR-3 ovarian, 1500 nM; in the assay on OVCAR-4 ovarian, 3160 nM; with OVCAR-5 ovarian, 1660 nM; in the assay on RPMI-8226 leukemia, 1270 nM. Further, the TGI is 1940 nM in the assay with RXF 393 renal; 1370 nM in the assay on SF-268 CNS; 14900 nM in the assay on SF-539 CNS; 312 nM with SK-MEL-5 melanoma; 1720 nM in the assay on SNB-19 CNS; 997 nM in the assay on SNB-75 CNS. The TGI in the assay on SR leukemia stood at 899 nM; in the assay with TK-10 renal it was 1030 nM; with U251 CNS, 1320 nM; in the assay on UACC-257 melanoma, 692 nM; in the assay with UO-31 renal, 802 nM.

The values above are taken from PubChem BioAssay (NCI).
